Read-outs that look alike come from different tables or passages of the source. Values belong to the compound of their own block, whether it stands above or below them.
Biological target: Mcl-1 protein (UniProtKB primary accession number: Q07820) (Homo sapiens, UniProt Q07820)
Assay: Inhibition of Mcl-1 by fluorescence polarisation, Method 1
Type: binding
Settings: for IC50: read-out: IC50 (M) Mcl-1 FP; for percentage fluorescence polarisation inhibition, Mcl-1 FP: partial inhibitors
Summary of the method: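 An 11-point DMSO dilution of compound is mixed with buffer (10 mM HEPES, 150 mM NaCl, 0.05% Tween 20, pH 7.4) carrying 1 nM fluorescein-labelled ligand and 5 nM Mcl-1, final concentrations. Displacement is monitored by fluorescence polarisation.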

[1] = fluorescence polarisation test, Method 1, or Method 2 where the value is underlined (underlining not visible)
[2] = fluorescence polarisation, Method 1, or Method 2
[3] = fluorescence polarisation test, Method 2 values are underlined in the patent (underlining not visible here)

Chain of Mcl-1 protein (Q07820 whole entry): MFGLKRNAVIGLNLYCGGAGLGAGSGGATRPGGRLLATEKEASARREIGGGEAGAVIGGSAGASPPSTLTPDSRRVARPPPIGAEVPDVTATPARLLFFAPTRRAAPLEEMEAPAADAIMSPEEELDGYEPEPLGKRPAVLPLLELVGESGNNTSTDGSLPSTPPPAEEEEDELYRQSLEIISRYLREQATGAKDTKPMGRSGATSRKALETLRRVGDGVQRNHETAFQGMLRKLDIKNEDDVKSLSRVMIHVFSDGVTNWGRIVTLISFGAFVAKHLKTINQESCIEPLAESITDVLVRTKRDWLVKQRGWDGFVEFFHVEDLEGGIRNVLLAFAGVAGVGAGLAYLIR

- IC50 [1]: 2.04e-07 M
Structure (SMILES): CCC(=O)OC(C)OC(=O)C(Cc1ccccc1OCc1ccnc(-c2ccccc2OC)n1)Oc1ncnc2sc(-c3ccc(F)cc3)c(-c3ccc(OCCN4CCN(C)CC4)c(Cl)c3C)c12 [Example 860, 1-(propanoyloxy)ethyl (2R)-2-{[(5Sa)-5-{3-chloro-2-methyl-4-[2-(4-methylpiperazin-1-yl)ethoxy]phenyl}-6-(4-fluorophenyl)thieno[2,3-d]pyrimidin-4-yl]oxy}-3-(2-{[2-(2-methoxyphenyl)pyrimidin-4-yl]methoxy}phenyl)propanoate]

- percentage fluorescence polarisation inhibition, Mcl-1 FP (@ 1000 uM test compound): 71.7 % @ 1000 uM
Structure (SMILES): CCOC(=O)[C@@H](Cc1ccccc1OC)Oc1ncnc2sc(-c3ccsc3)c(-c3ccc(O)c(Cl)c3C)c12 [Example 636, ethyl (2R)-2-{[(5Sa)-5-(3-chloro-4-hydroxy-2-methylphenyl)-6-(thiophen-3-yl)thieno[2,3-d]pyrimidin-4-yl]oxy}-3-(2-methoxyphenyl)propanoate]

- IC50 [1]: 5.16e-07 M
Structure (SMILES): CCOC(=O)C(Cc1ccccc1OCc1ccnc(-c2ccccc2OCCOC)n1)Oc1ncnc2sc(-c3ccc(F)cc3)c(-c3ccc(OCCN4CCN(C)CC4)c(Cl)c3C)c12 [Example 796, ethyl (2R)-2-{[(5Sa)-5-{3-chloro-2-methyl-4-[2-(4-methylpiperazin-1-yl)ethoxy]phenyl}-6-(4-fluorophenyl)thieno[2,3-d]pyrimidin-4-yl]oxy}-3-[2-({2-[2-(2-methoxyethoxy)phenyl]pyrimidin-4-yl}methoxy)phenyl]propanoate]

- IC50 [2]: 5.1e-08 M
Structure (SMILES): COc1ccc(-c2c(-c3ccc(F)cc3)sc3ncnc(OC(Cc4ccccc4OCc4ccnc(N(C)C)n4)C(=O)O)c23)c(C)c1Cl [Example 660, (2R)-2-{[(5Sa)-5-(3-chloro-4-methoxy-2-methylphenyl)-6-(4-fluorophenyl)thieno[2,3-d]pyrimidin-4-yl]oxy}-3-(2-{[2-(dimethylamino)pyrimidin-4-yl]methoxy}phenyl)propanoic acid]

- IC50 [2]: 1.1e-07 M
Structure (SMILES): COC(=O)c1ccc(-c2sc3ncnc(OC(Cc4ccccc4OC)C(=O)O)c3c2-c2ccc(OCCN3CCN(C)CC3)c(Cl)c2C)o1 [Example 583, (2R)-2-[((5Sa)-5-{3-chloro-2-methyl-4-[2-(4-methylpiperazin-1-yl)ethoxy]phenyl}-6-[5-(methoxycarbonyl)furan-2-yl]thieno[2,3-d]pyrimidin-4-yl)oxy]-3-(2-methoxyphenyl)propanoic acid]

- percentage fluorescence polarisation inhibition (Mcl-1 FP), partial inhibitors (test compound at 10 uM, Method 1, or Method 2 where the value is underlined (underlining not visible)): −11.9% @ 10 uM
Structure (SMILES): CCOC(=O)[C@@H](Cc1ccccc1OCc1ccnc(-c2ccccc2OC)n1)Oc1ncnc2sc(-c3ccc(F)cc3)c(-c3ccc(OCCN4CCN(C)CC4)c(Cl)c3C)c12 [Example 830, ethyl (2R)-2-{[(5Ra)-5-{3-chloro-2-methyl-4-[2-(4-methylpiperazin-1-yl)ethoxy]phenyl}-6-(4-fluorophenyl)thieno[2,3-d]pyrimidin-4-yl]oxy}-3-(2-{[2-(2-methoxyphenyl)pyrimidin-4-yl]methoxy}phenyl)propanoate]

- IC50 [3]: 5.9e-09 M
Structure (SMILES): Cc1c(-c2c(-c3ccc(F)cc3)sc3ncnc(OC(Cc4ccccc4OCc4ccnn4CC(F)(F)F)C(=O)O)c23)ccc(OCCN2CCN(C)CC2)c1Cl [Example 77, (2R)-2-{[(5Sa)-5-{3-chloro-2-methyl-4-[2-(4-methylpiperazin-1-yl)ethoxy]phenyl}-6-(4-fluorophenyl)thieno[2,3-d]pyrimidin-4-yl]oxy}-3-(2-{[1-(2,2,2-trifluoroethyl)-1H-pyrazol-5-yl]methoxy}phenyl)propanoic acid]

Structure (SMILES): CCOC(=O)C(Cc1ccccc1OCC1CCCO1)Oc1ncnc2sc(-c3ccc(F)cc3)c(-c3ccc(OCCN(C)C)c(Cl)c3C)c12 [Example 630, ethyl (2R)-2-{[(5Sa)-5-{3-chloro-4-[2-(dimethylamino)ethoxy]-2-methylphenyl}-6-(4-fluorophenyl)thieno[2,3-d]pyrimidin-4-yl]oxy}-3-{2-[(2R)-tetrahydrofuran-2-ylmethoxy]phenyl}propanoate]
- percentage fluorescence polarisation inhibition, Mcl-1 FP (@ 10 uM test compound): 27.95% @ 10 uM

- IC50 [2]: 2.1e-08 M
Structure (SMILES): Cc1c(-c2c(-c3ccco3)sc3ncnc(OC(Cc4ccccc4OCc4ccccn4)C(=O)O)c23)ccc(O)c1Cl [Example 674, (2R)-2-{[(5Sa)-5-(3-chloro-4-hydroxy-2-methylphenyl)-6-(furan-2-yl)thieno[2,3-d]pyrimidin-4-yl]oxy}-3-[2-(pyridin-2-ylmethoxy)phenyl]propanoic acid]

- IC50 [2]: 5.1e-07 M
Structure (SMILES): COc1ccccc1CC(Oc1ncnc2sc(-c3cccc(OC(F)(F)F)c3F)c(-c3ccc(OCCN4CCN(C)CC4)c(Cl)c3C)c12)C(=O)O [Example 562, (2R)-2-[((5Sa)-5-{3-chloro-2-methyl-4-[2-(4-methylpiperazin-1-yl)ethoxy]phenyl}-6-[2-fluoro-3-(trifluoromethoxy)phenyl]thieno[2,3-d]pyrimidin-4-yl)oxy]-3-(2-methoxyphenyl)propanoic acid]

Structure (SMILES): COc1ccccc1CC(Oc1ncnc2sc(C(=O)N(C)C)c(-c3ccc(OCCN4CCN(C)CC4)c(Cl)c3C)c12)C(=O)O [Example 574, (2R)-2-{[(5Ra)-5-{3-chloro-2-methyl-4-[2-(4-methylpiperazin-1-yl)ethoxy]phenyl}-6-(dimethylcarbamoyl)thieno[2,3-d]pyrimidin-4-yl]oxy}-3-(2-methoxyphenyl)propanoic acid]
- percentage fluorescence polarisation inhibition, Mcl-1 FP (@ 10 uM test compound, 10 µM): 24.3% @ 10 uM

- IC50 [3]: 9.4e-09 M
Structure (SMILES): Cc1c(-c2c(-c3ccc(F)cc3)sc3ncnc(OC(Cc4ccccc4OCc4ccnn4C(C)C)C(=O)O)c23)ccc(OCCN2CCN(C)CC2)c1Cl [Example 71, (2R)-2-{[(5Sa)-5-{3-chloro-2-methyl-4-[2-(4-methylpiperazin-1-yl)ethoxy]phenyl}-6-(4-fluorophenyl)thieno[2,3-d]pyrimidin-4-yl]oxy}-3-(2-{[1-(propan-2-yl)-1H-pyrazol-5-yl]methoxy}phenyl)propanoic acid]

- IC50 [2]: 9.6e-07 M
Structure (SMILES): COc1ccccc1CC(Oc1ncnc2sc(-c3ccc(F)cc3)c(-c3ccc(OCCN4CCN(C)CC4)c(Cl)c3C)c12)C(=O)OCC(F)(F)F [Example 641, 2,2,2-trifluoroethyl (2R)-2-{[(5Sa)-5-{3-chloro-2-methyl-4-[2-(4-methylpiperazin-1-yl)ethoxy]phenyl}-6-(4-fluorophenyl)thieno[2,3-d]pyrimidin-4-yl]oxy}-3-(2-methoxyphenyl)propanoate]

- IC50 [2]: 3e-09 M
Structure (SMILES): CC#Cc1sc2ncnc(OC(Cc3ccccc3OCc3ccnn3CCCC)C(=O)O)c2c1-c1ccc(OCCN2CCN(C)CC2)c(Cl)c1C [Example 490, (2R)-3-{2-[(1-butyl-1H-pyrazol-5-yl)methoxy]phenyl}-2-{[(5Sa)-5-{3-chloro-2-methyl-4-[2-(4-methylpiperazin-1-yl)ethoxy]phenyl}-6-(prop-1-yn-1-yl)thieno[2,3-d]pyrimidin-4-yl]oxy}propanoic acid]

- IC50 [2]: 3.9e-07 M
Structure (SMILES): CCc1sc2ncnc(OC(Cc3ccccc3F)C(=O)O)c2c1-c1ccc(OCCN2CCN(C)CC2)c(Cl)c1C [Example 464, (2S)-2-[((5Ra)-5-{3-chloro-2-methyl-4-[2-(4-methylpiperazin-1-yl)ethoxy]phenyl}-6-ethylthieno[2,3-d]pyrimidin-4-yl)oxy]-3-(2-fluorophenyl)propanoic acid]

- IC50 [2]: 3.4e-08 M
Structure (SMILES): CCc1sc2ncnc(OC(Cc3ccccc3OCCOC)C(=O)O)c2c1-c1ccc(OCCN2CCN(C)CC2)c(Cl)c1C [Example 457, (2R)-2-[((5Sa)-5-{3-chloro-2-methyl-4-[2-(4-methylpiperazin-1-yl)ethoxy]phenyl}-6-ethylthieno[2,3-d]pyrimidin-4-yl)oxy]-3-[2-(2-methoxyethoxy)phenyl]propanoic acid]

- percentage fluorescence polarisation inhibition, Mcl-1 FP (@ 10 uM test compound): 11% @ 10 uM
Structure (SMILES): CCOC(=O)[C@@H](Cc1ccccc1OC)Oc1ncnc2sc(-c3ccc(F)cc3)c(-c3ccc(OCCN4CCN(C)CC4)c(Cl)c3C)c12 [Example 642, ethyl (2R)-2-{[(5Sa)-5-{3-chloro-2-methyl-4-[2-(4-methylpiperazin-1-yl)ethoxy]phenyl}-6-(4-fluorophenyl)thieno[2,3-d]pyrimidin-4-yl]oxy}-3-(2-methoxyphenyl)propanoate]

- IC50 [2]: 1.8e-08 M
Structure (SMILES): CCc1sc2ncnc(OC(Cc3ccccc3)C(=O)O)c2c1-c1cc2ccoc2c(Cl)c1C [Example 443, (2R)-2-{[(5Sa)-5-(7-chloro-6-methyl-1-benzofuran-5-yl)-6-ethylthieno[2,3-d]pyrimidin-4-yl]oxy}-3-phenylpropanoic acid]

- IC50 [3]: 2.6e-09 M
Structure (SMILES): Cc1ccccc1-c1nccc(COc2ccccc2CC(Oc2ncnc3sc(-c4ccc(F)cc4)c(-c4ccc(OCCN5CCN(C)CC5)c(Cl)c4C)c23)C(=O)O)n1 [Example 113, (2R)-2-{[(5Sa)-5-{3-chloro-2-methyl-4-[2-(4-methylpiperazin-1-yl)ethoxy]phenyl}-6-(4-fluorophenyl)thieno[2,3-d]pyrimidin-4-yl]oxy}-3-(2-{[2-(2-methylphenyl)pyrimidin-4-yl]methoxy}phenyl)propanoic acid]

- IC50 [3]: 1.3e-08 M
Structure (SMILES): COc1ccccc1CC(Oc1ncnc2sc(-c3ccco3)c(-c3ccc(OC(=O)CN4CCN(C)CC4)c(Cl)c3C)c12)C(=O)O [Example 332, (2R)-2-{[(5Sa)-5-(3-chloro-2-methyl-4-{[(4-methylpiperazin-1-yl)acetyl]oxy}phenyl)-6-(furan-2-yl)thieno[2,3-d]pyrimidin-4-yl]oxy}-3-(2-methoxyphenyl)propanoic acid]

- percentage fluorescence polarisation inhibition, Mcl-1 FP (@ 10 uM test compound): 13.05% @ 10 uM
Structure (SMILES): CC#Cc1sc2ncnc(O[C@H](Cc3ccccc3OC)C(=O)O)c2c1-c1cc(N2CCN(C)CC2)c(OC)c(Cl)c1C [Example 472, (2R)-2-({(5Ra)-5-[3-chloro-4-methoxy-2-methyl-5-(4-methylpiperazin-1-yl)phenyl]-6-(prop-1-yn-1-yl)thieno[2,3-d]pyrimidin-4-yl}oxy)-3-(2-methoxyphenyl)propanoic acid]

Reference: US9670227B2, “Thienopyrimidine derivatives, a process for their preparation and pharmaceutical compositions containing them” (LES LABORATOIRES SERVIER, priority 2013, dated 2017)
